Measurements from PubChem BioAssay AID816 (SRMLSC, 2007).
Active and inactive are the calls of the source. How the calls were made is not given here.

Tested on: S. cerevisiae GAL1 promoter reporter activation counterscreen
Test: yeast Gal1p promoter activation – S. cerevisiae, artefact control for yeast lifespan extension project (AID 816);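 further: yeast growth read after 24 h of incubation with compounds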

SMILES	EC50
N=c1c2c(-c3ccccc3)c(-c3ccccc3)n(Cc3ccco3)c2ncn1CCCn1ccnc1	> 40 µM (inactive)
O=C(O)c1c[nH]c(=S)n1-c1ccc(F)cc1	> 40 µM (inactive)
CCCC(=Nc1ccc(N)cc1)C1=C(O)C(C(=O)OC)C(C)(C)CC1=O (stereo not drawn)	> 40 µM (inactive)
COCCOC(=O)/C(=C/c1ccc(OC(=O)c2ccccc2)cc1)C(C)=O	> 40 µM (inactive)
CS(=O)(=O)Oc1ccc(Br)cc1/C=C1/N=C(c2ccco2)OC1=O	> 40 µM (inactive)
Fc1cccc2sc(Nc3nnc(-c4ccccc4)o3)nc12	> 40 µM (inactive)
Cc1ccc(Oc2nc3ccccc3n3c(C)nnc23)c(C)c1	> 40 µM (inactive)
CCOc1ccc(C2=NNC(c3cccs3)=Nc3ccc(OCC)cc32)cc1	> 40 µM (inactive)
CCOC(=O)CSC1=NC(=O)/C(=C/c2ccc(OC)cc2)S1	> 40 µM (inactive)
C=CCn1c(C)cc(C(=O)CSc2nc3ccccc3c(=O)[nH]2)c1C	> 40 µM (inactive)
O=C1CC(c2ccccc2)CC(O)=C1C=NCCN1CCOCC1 (stereo not drawn)	> 40 µM (inactive)
Cn1nnnc1SCCNCC#Cc1ccccc1	> 40 µM (inactive)
CCOC(=O)CN1C(=O)N[C@H](c2ccc(Br)cc2)C(C(C)=O)=C1C	> 40 µM (inactive)
CCc1nnc(NC(=O)c2cccc(S(=O)(=O)N(C)c3ccccc3)c2)s1	> 40 µM (inactive)
Cc1ccc(NC(=O)C2C(=O)N(C)c3ccccc32)cc1 (stereo not drawn)	> 40 µM (inactive)
C=CCN(CC=C)S(=O)(=O)c1ccc2nc(NC(=O)C(C)C)sc2c1	> 40 µM (inactive)
CC1=C(C#N)C2C(/C1=N/O)C2(C)C (stereo not drawn)	> 40 µM (inactive)
O=C1c2ccccc2NC(c2cnc3ccccc3n2)N1O (stereo not drawn)	> 40 µM (inactive)
CCn1ncc(/C=N/NC(=O)c2ccc3c(c2)OCO3)c1C	> 40 µM (inactive)
CN=C(SCc1cc2c(cc1Cl)OCO2)c1c(O)n(C)c(=O)n(C)c1=O	> 40 µM (inactive)
COCCCNC(CC(=O)Nc1ccc(OC)cc1OC)C(=O)O (stereo not drawn)	> 40 µM (inactive)
COc1ccc(C(=O)On2c(-c3ccc(Br)cc3)nc3ccccc3c2=O)cc1	> 40 µM (inactive)
CCCCCOC(=O)CSc1nc2c(c(=O)[nH]c(=O)n2C)n1CCc1ccccc1	> 40 µM (inactive)
O=C(N/N=C/c1ccc(F)cc1)c1c(O)c2ccccc2[nH]c1=O	> 40 µM (inactive)
COCCCN(C(=S)Nc1cc(Cl)cc(Cl)c1)C(C)c1ccncc1 (stereo not drawn)	> 40 µM (inactive)

SMILES	EC50
Cc1ccc(/C(O)=C2\C(=O)C(=O)N(c3cc(C)on3)C2c2cccc(Cl)c2)cc1 (stereo not drawn)	> 40 µM (inactive)
O=C(O)c1ccc(O)c(N2C(=O)Nc3ccccc3N2O)c1	> 40 µM (inactive)
CN1CCC2(CC1)C(C#N)=C(N)NC(S)=C2C#N	> 40 µM (inactive)
O=C1OC2(CCCCC2)OC(=O)C1=CNc1nc2ccccc2s1	> 40 µM (inactive)
COc1ccc(/C=C(/C(=O)c2ccc(Cl)cc2Cl)n2cncn2)cc1	> 40 µM (inactive)
O=Cc1cc2ccccc2nc1SCc1ccc(Cl)cc1	> 40 µM (inactive)
C=CS(=O)(=O)c1ccc(Oc2ccc(S(=O)(=O)C=C)cc2)cc1	> 40 µM (inactive)
COc1cccc(/C=C/C(=O)c2c(O)cc(C)oc2=O)c1O	> 40 µM (inactive)
CSC1=NSC2=NC(=O)/C(=C\c3cccs3)C(=N)N12	> 40 µM (inactive)
CCOc1ccc(/C=C2/C(=O)NC(=O)N(CCc3ccc(F)cc3)C2=O)cc1	> 40 µM (inactive)
c1ccc(-c2c(-c3ccccc3)n(Cc3ccco3)c3ncnc(NCCCn4ccnc4)c23)cc1	> 40 µM (inactive)
CC[n+]1c(/C=C2\C=C(C)CC(C)(C)C2)sc2ccccc21	> 40 µM (inactive)
O=C(CCC1CCCC1)c1c(O)c2ccccc2oc1=O	> 40 µM (inactive)
O=C(/C=C/c1ccccc1)C1C(=O)c2ccccc2C1=O	> 40 µM (inactive)
CC[n+]1ccc(C[n+]2ccccc2)c2ccccc21	> 40 µM (inactive)
CC(=O)Nc1c(O)nc(SCc2ccccc2C#N)[nH]c1=O	> 40 µM (inactive)
O=C(Oc1ccc2c(c1)OCO2)C12CC3CC(CC(C3)C1)C2	> 40 µM (inactive)
C=C(C(=O)c1ccccc1)C(C)CC(=O)c1ccccc1 (stereo not drawn)	> 40 µM (inactive)
CCc1nc(SCC(=O)c2ccc3c(c2)OCCO3)c2ccccc2n1	> 40 µM (inactive)
COc1cccc(CSc2nc3ccccc3cc2C=O)c1	> 40 µM (inactive)
CCCCn1c(=O)c2c(O)cc(=O)oc2c2ccccc21	> 40 µM (inactive)
O=C1CC(c2ccccc2)CC(O)=C1C=NCCN1CCN(C(=O)Nc2ccccc2)CC1 (stereo not drawn)	> 40 µM (inactive)
C=CCn1c(O)c(C(CC)=NCCN2CCOCC2)c(=O)[nH]c1=O	> 40 µM (inactive)
O=C1NCC2=C1C(c1ccc(Br)cc1)Nc1ccccc1N2 (stereo not drawn)	> 40 µM (inactive)
O=Cc1ccccc1OS(=O)(=O)c1ccccc1	> 40 µM (inactive)

SMILES	EC50
Cc1ccc(N(C(=O)CS(=O)CC(=O)Nc2ccc(F)cc2)C(C(=O)NC2CCCCC2)c2ccco2)cc1 (stereo not drawn)	> 40 µM (inactive)
CCCCNC(=O)/C(C#N)=C/c1cccnc1	> 40 µM (inactive)
CCCCCCCC(=O)N/N=C(/C)c1c(O)cc(C)oc1=O	> 40 µM (inactive)
CN(C)C1(c2nnnn2CCOC(=O)Nc2ccc(Cl)cc2)CCCCC1	> 40 µM (inactive)
COc1ccc(C2CC23N=C(c2ccccc2)OC3=O)cc1 (stereo not drawn)	> 40 µM (inactive)
COc1cc(/C=C/C(=O)C2C(=O)C=C(C)OC2=O)cc(OC)c1O (stereo not drawn)	> 40 µM (inactive)
O=C(Nc1ccc(Br)cn1)c1cccc(-c2cc3ccccc3oc2=O)c1	> 40 µM (inactive)
C/C(=N\NC(=O)c1cccnc1)c1c(O)cc(C)oc1=O	> 40 µM (inactive)
COc1ccc(/C=C/C(=O)C2C(=O)C=C(C)OC2=O)cc1O (stereo not drawn)	> 40 µM (inactive)
COc1cc(OC)cc(-c2nc3ccccc3c(=O)n2OC(=O)c2ccccc2C)c1	> 40 µM (inactive)
COC(=O)CCS(=O)(=O)c1nc(-c2ccccc2)cc(C(F)(F)F)n1	> 40 µM (inactive)
O=C(CCl)N1c2ccccc2OCC1c1ccccc1 (stereo not drawn)	> 40 µM (inactive)
Nc1sc(-c2ccccc2)cc1C(=O)O	> 40 µM (inactive)
COc1ccc(CN2C(=O)/C(=C/c3ccncc3)SC2=S)cc1	> 40 µM (inactive)
Cc1ccc(N/C(C(Cl)=C(Cl)Cl)=C(/Cl)[N+](=O)[O-])c(C)c1	> 40 µM (inactive)
O=C(NC(=S)NNC(=O)c1ccc(Cl)cc1Cl)c1cccnc1	> 40 µM (inactive)
CCCC(=O)Nc1ccccc1Sc1ncnc2scc(-c3ccccc3)c12	> 40 µM (inactive)
CCOC(=O)/C(=C/c1ccc(OC(=O)c2ccccc2)cc1)C(C)=O	> 40 µM (inactive)
Oc1ccc2ccccc2c1C=Nc1ccc(N2CCOCC2)cc1	> 40 µM (inactive)
c1ccc(-c2cc(N3CCOCC3)nc3ccccc23)cc1	> 40 µM (inactive)
O=CN(/C=C1\Sc2ccccc2C1=O)Cc1ccccc1	> 40 µM (inactive)
CCc1c(C)c(C#N)c2nc3ccccc3n2c1Cl	> 40 µM (inactive)
CCOc1ccc(C(=O)C(CN2CCOCC2)c2ccccc2)cc1 (stereo not drawn)	> 40 µM (inactive)
